For data set [1], the system named is differentiated SH-SY5Y cells. In words: Anti-oxidative stress-induced neuronal cell death (AOND) analysis, AlamarBlue cell viability. In kind it is cell-based, human. The protocol:
Human neuroblastoma SH-SY5Y cells (ATCC, CRL-2266) were grown in Dulbecco’s modified Eagle’s medium (DMEM) supplemented with 10% fetal bovine serum (HyClone, Thermo Fisher Scientific Inc.), 100 U/ml penicillin, and 100 µg/ml streptomycin at 37°C in 5% CO2. For differentiation, SH-SY5Y cells were seeded at a density of 0.75×10^4 cells per well in 96-well plates (Primaria, BD Falcon) for 1 day, and cultured in the medium containing 10 µM all-trans retinoic acid for additional 5 days.
[…] Then, the cells were exposed to various concentrations of cytotoxins, including oxidative stressors [menadione, 10 to 80 µM for 4 to 6 h; α-naphthoquinone, 12.5 µM for 4 h; 6-hydroxydopamine (6-OHDA), 400 µM for 4 h], protein kinase inhibitor (staurosporine, 25 µM for 6 h) and phosphatase inhibitor (okadaic acid, 1 µM for 6 h), in fresh medium. Cell viability was measured by AlamarBlue assay (Invitrogen) as described previously.

A further data set concerns HeLa cells. In words: Detection of intracellular ROS, •OH and 4-HNE after oxidative insult. In kind it is cell-based, human. Conditions: 10 µM, 8 h, then menadione or FeSO4/H2O2 1 h. The protocol: HeLa cells (ATCC, CCL-2) cultured on poly-L-lysine-coated coverslips were treated with WN1316 (10 µM) or vehicle (DMSO) for 8 h and incubated with 10 µM H2DCF-DA for 30 min. Cells were then exposed to 60 µM menadione for 1 h. Confocal fluorescence images were obtained using Zeiss LSM 700 confocal microscope.
To detect the hydroxyl radical (•OH), we used hydroxyphenyl fluorescein (HPF) as a specific probe. In brief, HeLa cells were treated with WN1316 (10 µM) or vehicle (DMSO) for 8 h and then incubated with 100 µM HPF for 30 min at 37°C in Hanks’s buffer (Invitrogen). After washing with phosphate-buffered saline (PBS), the reaction buffer (0.1 mM FeSO4, 0.2 mM H2O2) was added, and cells were incubated for 1 h at 37°C to generate •OH. Confocal fluorescence images were obtained using the lambda mode of Zeiss LSM 510 Meta confocal microscope and analytical software.
HeLa cells cultured on poly-L-lysine-coated coverslips were treated with 10 µM WN1316 or DMSO for 8 h, and then incubated in fresh medium containing 60 µM menadione for 1 h. Cells were fixed in 0.1% glutaraldehyde/4% paraformaldehyde/PBS for 10 min, rinsed three times with PBS, and permeabilized with 0.1% Triton-X-100 for 15 min. […]

Data set [2] concerns Nrf2 signaling pathway in SH-SY5Y cells. In words: Nrf2-regulated gene expression (RT-PCR, Western blot). In kind it is cell-based, human. Conditions: 10 µM, within 3 h. The protocol: Total RNA was extracted from cells using the TRIzol reagent (Invitrogen). Isolated total RNA was purified using the SV Total RNA Isolation System (Promega) according to the manufacturer’s instruction. RT-PCR was performed with QIAGEN onestep RT-PCR kit (QIAGEN). The housekeeping peptidylprolyl isomerase A (PPIA) gene was used as an internal control. PCR primers specific to each gene are as follows: ATF3, 5′-[…]-3′, and 5′-[…]-3′ (268 bp); GCLM, 5′-[…]-3′, and 5′-[…]-3′ (367 bp); HO-1, 5′-[…]-3′, and 5′-[…]-3′ (348 bp); NQO1, 5′-[…]-3′, and 5′-[…]-3′ (298 bp); Nrf2, 5′-[…]-3′, and 5′-[…]-3′ (263 bp); p21/CDKN1A, 5′-[…]-3′, and 5′-[…]-3′ (201 bp); p62/SQSTM1, 5′-[…]-3′, and 5′-[…]-3′ (330 bp); PPIA, 5′-[…]-3′, and 5′-[…]-3′ (184 bp). Amplified products were electrophoretically resolved by a 2.0% agarose gel, stained with ethidium bromide, and photographed under ultraviolet light.
SH-SY5Y cells (3×10^5 cells) were washed twice with ice-cold PBS and incubated in 1 ml of ice-cold 10% trichloroacetic acid for 30 min. Cells were centrifuged at 22,000×g for 15 min at 4°C and lysed by pipetting in 80 µl of 9 M urea containing 2% Triton X-100 and 1% dithiothreitol. After the addition of 20 µl of 10% lithium dodecyl sulfate and 2 µl of 2 M Tris base, cell lysates were sonicated until their viscosity disappeared. […]

Another data set relates to HO-1 mRNA. The experiment in a line: qRT-PCR of HO-1 mRNA in lumbar spinal cord of wild type mice. Conditions: 100 µg/kg oral, 3 h post-administration. In kind it is in vivo, mouse (C57BL/6N). The protocol: Wild type mice at 8 weeks of age (male, C57BL/6N) were administered per os with either vehicle (physiological saline) or WN1316 (100 µg/kg body weight). After 1 h, 3 h, 6 h and 9 h, mice were transcardially perfused with physiological saline containing 10% heparin under anesthesia with 2% isoflurane by inhalation, and the lumbar spinal cord was dissected. Total RNA was extracted from lumbar spinal cord using Sepasol-RNA I Super G (Nacalai Tesque), and purified by SV Total RNA Isolation System (Promega) according to manufacturer's instructions. qRT-PCR was performed with QuantiFast™ SYBR Green RT-PCR Kit (QIAGEN) on CFX96 (BIO RAD). The PCR primers (QuantiTect Primer Assays) for HO-1 (Mm_Hmox1_1_SG) and PPIA (Mm_Ppia_1_SG) were purchased from QIAGEN. The levels of all transcripts were normalized for the PPIA mRNA level in each sample. Relative expression was calculated using the ΔΔCt method (Livak 2001).

Data set [3] is described as follows: Complexing with protein in rat serum. In kind it is in vitro ADME. Conditions: rat sera, unpublished data.

Structures are written as SMILES. Where a name gives a salt, the structure may show the parent alone.

With `Cc1cc(C)c(N(C)CC(=O)Nc2nc(-c3ccccn3)c[nH]2)c(C)c1` [WN1316, 2-[mesityl(methyl)amino]-N-[4-(pyridin-2-yl)-1H-imidazol-2-yl] acetamide trihydrochloride], the “pre-treatment time required for AOND activity” value in data set [1] (6 µM WN1316, then 60 µM menadione 4 h) is given as above 8 h. In addition, the “concentration that militates against cytoprotection” value in data set [1] (8 h treatment, then 60 µM menadione 4 h) was above 20 µM. The “cytoprotection against oxidative stress-induced cell death” value in data set [1] (compound 24 h, then 60 µM menadione 4 h, compared with mother compound CPN-9) is given as “marked cytoprotection”. In data set [1] (menadione, α-naphthoquinone, 6-OHDA vs staurosporine, okadaic acid, 8 h pretreatment), the “selectivity of protection against various cytotoxins” value was “greatest protection against oxidative stress-induced damage”. Besides, the “level of intracellular •OH and lipid peroxidation” value in the data set on HeLa cells is recorded as “markedly reduced their levels”. The “mRNA of Nrf2-regulated genes (Nrf2, ATF3, HO-1, GCLM, NQO1, p21, p62)” value in data set [2] was “increased”. The “HO-1 mRNA in the lumbar spinal cord” value with HO-1 mRNA was “transient induction”. Also, the “protein complexing in serum” value in data set [3] was “complexes with protein”.
